Assay results published in patent US20260207753A1, “PROTAC DEGRADATION OF FACTORS PAX3 AND FOXO1” (THE RESEARCH INSTITUTE AT NATIONWIDE CHILDREN'S HOSPITAL, priority 2022, published 2026).
“Also recorded” adds a separate entry of the source.

What was measured:
[1] = system: SMARCA4 and SMARCA2; assay: Western blot of soluble nuclear extracts: ATPase (SMARCA4/SMARCA2) degradation in RH4 / rhabdomyosarcoma cells; type: cell-based, human; conditions: for PROTAC exposure time until ATPase depletion is observed: 125 nM SMARCA4-31 or 250 nM DL-dS2-4, FIG. 6B; for dose required for maximal ATPase depletion: FIG. 6A; for loss of ATPases SMARCA4/SMARCA2: rhabdomyosarcoma cells, 1 μM, 24-hour treatment, western blot
Method: (§1) The inventors investigated the effect of a number of PROTAC inhibitors on fusion-positive and negative RMS cell models. The experiment was designed as follows. Fusion-positive RMS (RH4 and RH30) and fusion-negative RMS (RD and CTR) cells were treated with DMSO or 1 μM dBRD9, DL-ds2-4, or SMARCA4-31 for 24 hours. Soluble nuclear extracts were prepared to assess target degradation as well as abundance of additional SWI/SNF complex subunits and the transcription factor FOXO1 (wild-type and PAX3-FOXO1 fusion).
(§2) The inventors also investigated whether the effect of the compounds was reversible. Fusion-positive RMS RH4 cells were treated for 24 hours with DMSO including […] dBRD9, DL-ds2-4, or SMARCA4-31. After the treatment period cells were collected or washed extensively to remove the compound and incubated in untreated growth media for an additional 24-hour period. Soluble nuclear extracts were prepared to assess target degradation and recovery.
(§3) In FIG. 6A, RH4 cells were treated for 24 hours with the indicated dose of SMARCA4-31 (labeled S4-31) or DL-dS2-4 (labeled S2-4).
(§4) In FIG. 6B, RH4 cells were treated with 125 nM SMARCA4-31 (labeled S4-31) or 250 nM DL-dS2-4 (labeled S2-4) for the indicated time.

[2] = system: PAX3-FOXO1 fusion; assay: Western blot of soluble nuclear extracts: PAX3-FOXO1 fusion loss in RH4 cells; type: cell-based, human; conditions: 24 hours; for loss of the PAX3-FOXO1 fusion: 1 μM; for PROTAC concentration at which PAX3-FOXO1 is fully depleted: FIG. 6A
Method: as §1, §2, §3, §4

[3] = molecular target: T1, FOXO1 (Homo sapiens, UniProt Q12778); assay: Western blot of soluble nuclear extracts: wild-type FOXO1 loss in CTR cells; type: cell-based; conditions: 1 μM, 24 hours
T1 construct: In CTR cells, which only express the wild-type FOXO1; endogenous in cells; host or cells: CTR (SMS-CTR) cells
T1 sequence (Q12778 whole entry): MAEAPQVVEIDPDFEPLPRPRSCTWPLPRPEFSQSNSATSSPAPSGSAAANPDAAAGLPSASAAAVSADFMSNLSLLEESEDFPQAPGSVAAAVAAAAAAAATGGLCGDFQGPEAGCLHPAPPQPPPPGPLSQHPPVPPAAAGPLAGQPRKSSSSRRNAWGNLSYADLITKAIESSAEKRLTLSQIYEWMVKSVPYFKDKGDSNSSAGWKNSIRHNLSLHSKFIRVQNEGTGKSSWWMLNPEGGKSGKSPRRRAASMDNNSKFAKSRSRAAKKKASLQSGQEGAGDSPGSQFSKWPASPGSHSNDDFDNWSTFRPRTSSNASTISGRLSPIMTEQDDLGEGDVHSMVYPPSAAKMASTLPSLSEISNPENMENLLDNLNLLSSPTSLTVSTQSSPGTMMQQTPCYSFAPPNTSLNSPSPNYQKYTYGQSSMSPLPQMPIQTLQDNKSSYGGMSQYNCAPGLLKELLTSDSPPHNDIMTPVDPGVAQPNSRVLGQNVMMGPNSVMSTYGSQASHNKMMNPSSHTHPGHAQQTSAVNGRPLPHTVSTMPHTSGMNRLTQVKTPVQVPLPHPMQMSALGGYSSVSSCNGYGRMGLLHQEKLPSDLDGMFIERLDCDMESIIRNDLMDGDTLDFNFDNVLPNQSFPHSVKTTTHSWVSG
Method: as §1

[4] = system: SMARCC1; assay: Abundance of SWI/SNF subunit SMARCC1 in soluble nuclear extracts; type: cell-based; conditions: 1 μM, 24 hours
Method: as §1

[5] = system: SMARCB1; assay: Abundance of SWI/SNF subunit SMARCB1 in soluble nuclear extracts; type: cell-based; conditions: 1 μM, 24 hours
Method: as §1

[6] = molecular target: T2, PBRM1 (Homo sapiens, UniProt Q86U86); assay: Abundance of PBAF subunit PBRM1 in soluble nuclear extracts; type: cell-based; conditions: 24 hours; for degradation of dedicated PBAF subunit PBRM1: 1 μM, soluble nuclear extracts
T2 construct: Soluble nuclear extracts were prepared to assess target degradation as well as abundance of additional SWI/SNF complex subunits; endogenous in cells; host or cells: RH4 (washout experiment) and other RMS cells
T2 sequence (Q86U86 whole entry): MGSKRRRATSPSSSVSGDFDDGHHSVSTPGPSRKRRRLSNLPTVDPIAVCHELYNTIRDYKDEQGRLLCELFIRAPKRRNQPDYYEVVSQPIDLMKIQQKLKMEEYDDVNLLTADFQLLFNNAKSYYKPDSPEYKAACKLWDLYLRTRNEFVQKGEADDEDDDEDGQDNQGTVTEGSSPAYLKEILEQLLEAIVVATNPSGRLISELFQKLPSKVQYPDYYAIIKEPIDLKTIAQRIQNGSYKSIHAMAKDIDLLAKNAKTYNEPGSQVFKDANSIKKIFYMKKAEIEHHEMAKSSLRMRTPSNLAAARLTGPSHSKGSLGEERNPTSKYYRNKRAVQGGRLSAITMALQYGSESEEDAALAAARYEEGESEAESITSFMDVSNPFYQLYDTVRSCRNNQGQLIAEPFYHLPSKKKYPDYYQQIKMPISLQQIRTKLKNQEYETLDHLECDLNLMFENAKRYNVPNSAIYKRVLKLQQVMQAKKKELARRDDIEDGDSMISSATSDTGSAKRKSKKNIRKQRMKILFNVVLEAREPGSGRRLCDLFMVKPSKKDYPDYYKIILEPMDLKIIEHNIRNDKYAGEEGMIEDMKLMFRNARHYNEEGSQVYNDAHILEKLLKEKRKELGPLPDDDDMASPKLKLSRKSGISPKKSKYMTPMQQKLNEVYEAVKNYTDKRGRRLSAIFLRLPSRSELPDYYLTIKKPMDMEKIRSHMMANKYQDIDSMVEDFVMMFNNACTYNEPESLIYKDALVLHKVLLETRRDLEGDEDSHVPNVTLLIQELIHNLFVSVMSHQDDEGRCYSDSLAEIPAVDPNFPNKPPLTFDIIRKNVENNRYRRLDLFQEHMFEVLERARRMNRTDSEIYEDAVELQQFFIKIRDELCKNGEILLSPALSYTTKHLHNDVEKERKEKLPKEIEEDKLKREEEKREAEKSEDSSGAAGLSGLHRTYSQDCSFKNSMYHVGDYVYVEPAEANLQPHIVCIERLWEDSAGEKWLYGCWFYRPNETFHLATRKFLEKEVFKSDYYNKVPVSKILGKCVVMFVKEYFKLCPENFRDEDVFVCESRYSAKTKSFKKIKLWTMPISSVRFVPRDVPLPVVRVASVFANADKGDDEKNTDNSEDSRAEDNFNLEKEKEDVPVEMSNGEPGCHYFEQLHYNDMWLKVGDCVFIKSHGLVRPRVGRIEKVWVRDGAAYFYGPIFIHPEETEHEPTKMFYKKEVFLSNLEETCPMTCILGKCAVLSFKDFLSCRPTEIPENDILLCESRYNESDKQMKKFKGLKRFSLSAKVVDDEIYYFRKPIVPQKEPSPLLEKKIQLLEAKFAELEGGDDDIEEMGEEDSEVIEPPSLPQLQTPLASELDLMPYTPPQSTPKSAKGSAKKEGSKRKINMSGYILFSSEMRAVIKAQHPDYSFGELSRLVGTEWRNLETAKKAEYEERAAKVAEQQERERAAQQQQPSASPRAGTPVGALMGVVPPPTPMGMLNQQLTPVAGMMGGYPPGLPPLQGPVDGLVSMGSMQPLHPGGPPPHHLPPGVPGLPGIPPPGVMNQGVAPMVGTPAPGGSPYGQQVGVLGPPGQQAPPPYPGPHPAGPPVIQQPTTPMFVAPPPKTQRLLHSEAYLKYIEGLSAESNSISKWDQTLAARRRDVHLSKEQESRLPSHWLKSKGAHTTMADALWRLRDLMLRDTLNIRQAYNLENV
Method: as §1, §2

[7] = system: DPF2; assay: Abundance of BAF subunit DPF2 in soluble nuclear extracts; type: cell-based; conditions: 1 μM, 24 hours
Method: as §1

[8] = molecular target: T3, BRD9 (Homo sapiens, UniProt Q9H8M2); assay: Abundance of GBAF subunit BRD9 in soluble nuclear extracts; type: cell-based; conditions: 1 μM, 24 hours
T3 construct: Soluble nuclear extracts were prepared to assess target degradation as well as abundance of additional SWI/SNF complex subunits; endogenous in cells; host or cells: RH4, RH30, RD, CTR rhabdomyosarcoma cells
T3 sequence (Q9H8M2 1-597): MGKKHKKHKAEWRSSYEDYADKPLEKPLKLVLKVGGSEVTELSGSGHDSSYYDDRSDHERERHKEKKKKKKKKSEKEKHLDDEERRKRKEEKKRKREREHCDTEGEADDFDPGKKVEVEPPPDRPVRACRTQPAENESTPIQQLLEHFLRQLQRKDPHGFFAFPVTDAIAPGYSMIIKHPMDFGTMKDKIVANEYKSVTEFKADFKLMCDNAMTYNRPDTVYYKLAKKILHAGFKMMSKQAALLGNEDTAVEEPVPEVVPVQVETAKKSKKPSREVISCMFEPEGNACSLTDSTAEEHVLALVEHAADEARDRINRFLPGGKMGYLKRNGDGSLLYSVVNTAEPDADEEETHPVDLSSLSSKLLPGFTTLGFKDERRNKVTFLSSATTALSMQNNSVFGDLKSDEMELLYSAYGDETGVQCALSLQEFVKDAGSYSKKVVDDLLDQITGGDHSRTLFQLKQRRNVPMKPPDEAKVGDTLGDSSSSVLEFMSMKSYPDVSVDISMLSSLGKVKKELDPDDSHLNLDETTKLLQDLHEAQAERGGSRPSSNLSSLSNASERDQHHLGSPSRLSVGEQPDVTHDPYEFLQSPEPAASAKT
Method: as §1

[9] = system: RH4 cells; assay: Incucyte cell proliferation, growth-curve AUC dose-response, RH4; type: cell-based, human; conditions: RH4 (fusion-positive), 96-hour, AUC of growth curve, initial data, FIG. 7A
Method: (§5) In FIG. 7A, RH4 (a PAX3-FOXO1 fusion-positive rhabdomyosarcoma cell line) and SMS-CTR (a PAX3-FOXO1 fusion-negative rhabdomyosarcoma cell line) cells were treated with increasing concentrations of SMARCA4-31 or DL-dS2-4 for a 96-hour period, and cell proliferation was monitored on an Incucyte® system. […] We explored why RH4 and SMS-CTR cells display relatively high sensitivity to PROTAC treatment. The CRBN gene expresses the protein cereblon, a component of an E3 ubiquitin ligase complex. By analyzing CRBN gene expression using RNA-seq from the Cancer Cell Line Encyclopedia (CCLE) database, we show in FIG. 7B, that RH4 and SMS-CTR cells express high levels of CRBN compared to other rhabdomyosarcoma (RMS) cell lines.

[10] = system: SMS-CTR cells; assay: Incucyte cell proliferation, growth-curve AUC dose-response, SMS-CTR; type: cell-based; conditions: SMS-CTR (fusion-negative), 96-hour, AUC of growth curve, initial data, FIG. 7A
Method: as §5

[11] = system: MYOD1; assay: LC/MS of BAF-associated transcription factors in rhabdomyosarcoma cells: MYOD1; type: cell-based; conditions: 1 μM, 24-hour treatment
From the text: (§6) In addition to PAX3-FOXO1, depleted core-regulatory transcription factors included MYOD1, an essential factor in rhabdomyosarcoma cell growth.

[12] = molecular target: T4, PAX3-FOXO1 (Homo sapiens, UniProt P23760); assay: LC/MS of BAF-associated transcription factors in rhabdomyosarcoma cells: PAX3-FOXO1; type: cell-based; conditions: 1 μM, 24-hour treatment
T4 construct: endogenous in cells
T4 sequence (P23760 with tags, fused parts or gaps limits assumed): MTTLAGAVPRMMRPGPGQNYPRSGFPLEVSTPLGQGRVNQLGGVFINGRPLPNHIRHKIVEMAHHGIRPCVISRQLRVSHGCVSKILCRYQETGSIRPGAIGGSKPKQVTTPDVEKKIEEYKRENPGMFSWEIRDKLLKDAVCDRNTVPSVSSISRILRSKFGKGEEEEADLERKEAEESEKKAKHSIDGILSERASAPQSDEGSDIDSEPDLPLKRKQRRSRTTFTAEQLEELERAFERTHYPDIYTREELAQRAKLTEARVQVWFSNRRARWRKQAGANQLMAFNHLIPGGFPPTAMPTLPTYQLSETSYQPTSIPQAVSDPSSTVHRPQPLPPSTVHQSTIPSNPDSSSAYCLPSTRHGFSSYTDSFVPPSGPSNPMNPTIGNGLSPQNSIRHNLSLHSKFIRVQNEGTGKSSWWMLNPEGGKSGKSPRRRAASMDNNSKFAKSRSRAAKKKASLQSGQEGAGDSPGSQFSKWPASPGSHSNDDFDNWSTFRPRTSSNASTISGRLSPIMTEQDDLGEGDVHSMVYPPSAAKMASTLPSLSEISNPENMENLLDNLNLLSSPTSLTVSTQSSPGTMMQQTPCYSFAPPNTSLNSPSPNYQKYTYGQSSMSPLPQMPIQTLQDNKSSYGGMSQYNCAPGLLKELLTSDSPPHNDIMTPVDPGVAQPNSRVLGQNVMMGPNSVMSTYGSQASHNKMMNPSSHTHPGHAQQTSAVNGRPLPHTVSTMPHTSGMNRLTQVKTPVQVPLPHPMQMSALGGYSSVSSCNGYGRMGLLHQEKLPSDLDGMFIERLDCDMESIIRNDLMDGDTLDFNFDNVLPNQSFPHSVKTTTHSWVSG
From the text: as §6

[13] = system: RH4 cells; assay: Tn5 transposition library fragment length distribution (chromatin accessibility) in RH4 cells; type: cell-based, human; conditions: 24 hours, with or without washout and 24-hour recovery, FIG. 5
Method: Finally, the inventors determined if the reversible disruption of the SWU/SNF complex results in altered chromatin accessibility. FP-RMS RH4 cells were treated for 24 hours with DMSO or SMARCA4-31. A third group was treated with SMARCA4-31 for 24 hours before washout, and a 24-hour recovery period. 50.000 cells were used. Tn5 transposition followed by Illumina library amplification (15 cycles). Libraries were run on Bioanalyzer to assess fragment length distribution.

Structure (SMILES) | PROTAC exposure time until ATPase depletion is observed ([1]; RH4 cells) | dose required for maximal ATPase depletion ([1]; RH4 cells, 24 hours) [nM] | loss of ATPases SMARCA4/SMARCA2 [1] | loss of the PAX3-FOXO1 fusion [2] | PROTAC concentration at which PAX3-FOXO1 is fully depleted [2] [nM] | loss of wild-type FOXO1 [3] | degradation of core SWI/SNF subunit SMARCC1 [4] | abundance of core subunit SMARCB1 [5] | degradation of dedicated PBAF subunit PBRM1 [6] | abundance of BAF subunit DPF2 [7] | abundance of GBAF subunit BRD9 [8] | efficacy in inhibiting cell growth (concentration range) [9] | efficacy in inhibiting cell growth (concentration range) [10] | extent of SMARCA4 degradation, reversibility experiment ([1]; RH4 cells, 24 hours, 1 µM, FIG. 4) | extent of PAX3-FOXO1 degradation, reversibility experiment ([2]; 1 µM, FIG. 4) | extent of PBRM1 degradation, reversibility experiment ([6]; RH4 cells, 1 µM, FIG. 4) | MYOD1 depletion by LC/MS [11] | PAX3-FOXO1 depletion by LC/MS [12] | chromatin accessibility (fragment length signatures) [13]
O=C1CCC(N2C(=O)c3cccc(NCCCCNC(=O)c4cccc(C#Cc5cc(NC(=O)Nc6ccnc(Cl)c6)ccn5)c4)c3C2=O)C(=O)N1 (racemic) [DL-dS2-4] | approximately 20 hours | 250 | concurrent loss | loss of the PAX3-FOXO1 fusion; also recorded: concurrent loss | 62.5 | FOXO1 loss; also recorded: concurrent loss | degraded | remained intact | specific degradation | remained intact | remained intact | sub-micromolar efficacy | sub-micromolar efficacy | – | – | – | – | – | –
O=C1CCC(N2C(=O)c3ccc(NCCCCCCCCOCCc4cccc(N5C[C@H]6C[C@@H]5CN6/C=C/C(=O)c5ccccc5O)c4)cc3C2=O)C(=O)N1 (some centres unmarked) [SMARCA4-31] | approximately 20 hours | 125 | concurrent loss | loss of the PAX3-FOXO1 fusion; also recorded: concurrent loss | 62.5 | FOXO1 loss; also recorded: concurrent loss | degraded | remained intact | specific degradation | remained intact | remained intact | sub-micromolar efficacy | sub-micromolar efficacy | More complete degradation | More complete degradation | More complete degradation | depleted | depleted | alterations to the accessibility landscape
